In patent US9073862B2, “Substituted 2-oxy-quinoline-3-carboxamides as KCNQ2/3 modulators” (Grünenthal GmbH, priority 2010, dated 2015) one finds Emax and EC50 data, which are given here for 24 compounds.

Usually EC50 stands for the concentration giving half of the maximal effect.

For the test, the target named is T1, KCNQ2/3 channels (Homo sapiens, UniProt O43525+O43526).
T1 construct: expressed in transfected cells; host or cells: CHO-K1
Kind of test: Fluorescence assay using a voltage sensitive dye (fluorimetry). It is filed as cell-based. To be noted: CHO-K1 cells expressing KCNQ2/3 channels; for Emax: relative to retigabine = 100%, read-out: Fluorimetry % efficacy (retigabine = 100%). Here is the method:
Method I. Fluorescence Assay Using a Voltage Sensitive Dye (Fluorimetry)
[…] CHO-K1 cells expressing KCNQ2/3 channels are cultivated adherently at 37° C., 5% CO2 and 95% humidity in cell culture bottles (e.g. 80 cm^2 TC flasks, Nunc) with DMEM-high glucose (Sigma Aldrich, D7777) including 10% FCS (PAN Biotech, e.g. 3302-P270521) or alternatively MEM Alpha Medium (1×, liquid, Invitrogen, #22571), 10% fetal calf serum (FCS) (Invitrogen, #10270-106, heat-inactivated) and the necessary selection antibiotics.
Before being sown out for the measurements, the cells are washed with 1×DPBS buffer Ca^2+/Mg^2+-free (e.g. Invitrogen, #14190-094) and detached from the bottom of the culture vessel by using Accutase (PAA Laboratories, #L11-007) (incubation with Accutase for 15 min at 37° C.). The cell number is determined using a CASY™ cell counter (TCC, Schärfe System). Depending on the optimal density for each individual cell line, 20,000-30,000 cells/well/100 μl are seeded onto 96-well Corning™ CellBIND™ assay plates (Flat Clear Bottom Black Polystyrene Microplates, #3340). Freshly seeded cells are then left to settle for one hour at room temperature, followed by incubation for 24 hours at 37° C., 5% CO2 and 95% humidity.
The voltage-sensitive fluorescent dye from the Membrane Potential Assay Kit (Red™ Bulk format part R8123 for FLIPR, MDS Analytical Technologies™) is prepared by dissolving the contents of one vessel Membrane Potential Assay Kit Red Component A in 200 ml of extracellular buffer (ES buffer, 120 mM NaCl, 1 mM KCl, 10 mM HEPES, 2 mM CaCl2, 2 mM MgCl2, 10 mM glucose; pH 7.4). After removal of the nutrient medium, the cells are washed once with 200 μl of ES buffer, then loaded for 45 min at room temperature in 100 μl of dye solution in the dark.
Fluorescence measurements are carried out in a BMG Labtech FLUOstar™, BMG Labtech NOVOstar™ or BMG Labtech POLARstar™ instrument (525 nm excitation, 560 nm emission, Bottom Read mode). After incubation with the dye, 50 μl of the test substances in the desired concentrations, or 50 μl of ES buffer for control purposes, are applied to the wells of the assay plate and incubated for 30 min at room temperature while being shielded from light. The fluorescence intensity of the dye is then measured for 5 min and the fluorescence value F1 of each well is thus determined at a given, constant time. 15 μl of a KCl solution are then added to each well (final concentration of potassium ions 92 mM). The change in fluorescence intensity is subsequently monitored until all the relevant values have been obtained (mainly 5-30 min). At a given time post KCl application, a fluorescence value F2 is determined, in this case at the time of the fluorescence peak.
For calculation, the fluorescence intensity F2 is corrected for the fluorescence intensity F1, and the activity (ΔF/F) of the target compound on the potassium channel is determined as follows:
In order to determine whether a substance has agonistic activity,
[formula] can be related to
[formula] of control wells.
[formula] is determined by adding to the well only the buffer solution instead of the test substance, determining the value F1K of the fluorescence intensity, adding the potassium ions as described above, and measuring a value F2K of the fluorescence intensity. F2K and F1K are then calculated as follows: […]
A substance has an agonistic activity on the potassium channel if
[formula] is greater than
Independently of the comparison of
[formula] it is possible to conclude that a target compound has agonistic activity if
[formula] increases dose dependently.
Calculations of EC50 and IC50 values are carried out with the aid of ‘Prism v4.0’ software (Graph Pad Software™).

Each structure is given as a SMILES string.

Turning to `COc1nc2cc(C(F)(F)F)ccc2c(C)c1C(=O)NCCC(C)(C)C` [Example 1, N-(3,3-dimethyl-butyl)-2-methoxy-4-methyl-7-(trifluoromethyl)-quinoline-3-carboxylic acid amide], the Emax stood at 57%. With `CCOc1nc2cc(C(F)(F)F)ccc2c(C)c1C(=O)NCc1cccs1` [Example 2, 2-ethoxy-4-methyl-N-(thiophene-2-yl-methyl)-7-(trifluoromethyl)-quinoline-3-carboxylic acid amide], the EC50 came to 64 nM and the Emax stood at 175%. On to `Cc1c(C(=O)NCc2cccc(F)c2)c(OCCO)nc2cc(C(F)(F)F)ccc12` [Example 9, N-[(3-fluorophenyl)-methyl]-2-(2-hydroxy-ethoxy)-4-methyl-7-(trifluoromethyl)-quinoline-3-carboxylic acid amide], for which the EC50 is 390 nM and the Emax was 119%. In the same order, the values of `Cc1c(C(=O)NCc2ccc(F)cc2)c(OC(C)C)nc2cc(C(F)(F)F)ccc12` [Example 11, N-[(4-fluorophenyl)-methyl]-2-isopropoxy-4-methyl-7-(trifluoromethyl)-quinoline-3-carboxylic acid amide] are 52 nM and 164%. In the same order, the values of `CCOc1nc2cc(C(F)(F)F)ccc2c(OC)c1C(=O)NCc1ccc(F)cc1` [Example 14, 2-ethoxy-N-[(4-fluorophenyl)-methyl]-4-methoxy-7-(trifluoromethyl)-quinoline-3-carboxylic acid amide] are 75 nM and 155%. As for `CCOc1nc2cc(F)c(F)cc2c(OC)c1C(=O)NCc1cccc(F)c1` [Example 15, 2-ethoxy-6,7-difluoro-N-[(3-fluorophenyl)-methyl]-4-methoxy-quinoline-3-carboxylic acid amide], the EC50 worked out at 106 nM and the Emax was 181%. The matching figures for `COc1nc2cc(F)c(F)cc2c(OC)c1C(=O)NCc1cccc(F)c1` [Example 17, 6,7-difluoro-N-[(3-fluorophenyl)-methyl]-2,4-dimethoxy-quinoline-3-carboxylic acid amide]: 218 nM and 147%. For the compound `COc1nc2cc(F)ccc2c(C)c1C(=O)NCc1cccc(F)c1` [Example 18, 7-fluoro-N-[(3-fluorophenyl)-methyl]-2-methoxy-4-methyl-quinoline-3-carboxylic acid amide], the midpoint of the response, the EC50, lay at 340 nM and the Emax turned out to be 62%. In the case of `COc1nc2cc(C(F)(F)F)ccc2c(C)c1C(=O)NCc1ccc(C)c(F)c1` [Example 19, N-[(3-fluoro-4-methyl-phenyl)-methyl]-2-methoxy-4-methyl-7-(trifluoromethyl)-quinoline-3-carboxylic acid amide], the EC50 came out at 92 nM and the Emax was determined as 99%.

As to `COc1nc2cc(C(F)(F)F)ccc2c(C)c1C(=O)NCc1cccc(C)c1` [Example 21, 2-methoxy-4-methyl-N-(m-tolyl-methyl)-7-(trifluoromethyl)-quinoline-3-carboxylic acid amide], the concentration for a half-maximal effect (EC50) worked out at 67 nM and the Emax was found to be 71%. In the same order, the values of `COc1nc2cc(C(F)(F)F)ccc2c(C)c1C(=O)NCc1ccc(F)c(C)c1` [Example 23, N-[(4-fluoro-3-methyl-phenyl)-methyl]-2-methoxy-4-methyl-7-(trifluoromethyl)-quinoline-3-carboxylic acid amide] are 62 nM and 73%. The matching figures for `COc1nc2cc(C(F)(F)F)ccc2c(C)c1C(=O)NCc1ccc(C)cc1` [Example 25, 2-methoxy-4-methyl-N-(p-tolyl-methyl)-7-(trifluoromethyl)-quinoline-3-carboxylic acid amide]: 182 nM and 96%. Take `CCOc1nc2cc(C(F)(F)F)ccc2c(C)c1C(=O)NCc1ccc(C)cc1` [Example 26, 2-ethoxy-4-methyl-N-(p-tolyl-methyl)-7-(trifluoromethyl)-quinoline-3-carboxylic acid amide]: the EC50 was 131 nM and the Emax came out at 117%. Turning to `CCOc1nc2cc(C(F)(F)F)ccc2c(C)c1C(=O)NCCCC(C)C` [Example 27, 2-ethoxy-4-methyl-N-(4-methyl-pentyl)-7-(trifluoromethyl)-quinoline-3-carboxylic acid amide], the EC50 came out at 84 nM and the Emax worked out at 173%. In the same order, the values of `COc1nc2cc(C(F)(F)F)ccc2c(C)c1C(=O)NCCCC(C)C` [Example 28, 2-methoxy-4-methyl-N-(4-methyl-pentyl)-7-(trifluoromethyl)-quinoline-3-carboxylic acid amide] are 81 nM and 184%. On to `CCOc1nc2cc(C(F)(F)F)ccc2c(C)c1C(=O)NCCCC(C)(C)C` [Example 30, N-(4,4-dimethyl-pentyl)-2-ethoxy-4-methyl-7-(trifluoromethyl)-quinoline-3-carboxylic acid amide], for which a half-maximal response (EC50) required 50 nM and the Emax is 214%. The matching figures for `CCOc1nc2cc(C#N)ccc2c(C)c1C(=O)NCc1cccc(F)c1` [Example 36, 7-cyano-2-ethoxy-N-[(3-fluorophenyl)-methyl]-4-methyl-quinoline-3-carboxylic acid amide]: 56 nM and 105%. The matching figures for `COc1nc2cc(C#N)ccc2c(C)c1C(=O)NCc1cccc(F)c1` [Example 37, 7-cyano-N-[(3-fluorophenyl)-methyl]-2-methoxy-4-methyl-quinoline-3-carboxylic acid amide]: 261 nM and 85%.

Turning to `COc1nc2cc(C#N)ccc2c(C)c1C(=O)NCc1ccc(F)cc1` [Example 38, 7-cyano-N-[(4-fluorophenyl)-methyl]-2-methoxy-4-methyl-quinoline-3-carboxylic acid amide], the midpoint of the response, the EC50, lay at 143 nM and the Emax amounted to 74%. Take `COc1nc2cc(C(F)(F)F)ccc2c(C)c1C(=O)NCc1cccc(F)c1OC` [Example 39, N-[(3-fluoro-2-methoxy-phenyl)-methyl]-2-methoxy-4-methyl-7-(trifluoromethyl)-quinoline-3-carboxylic acid amide]: the Emax turned out to be 10%. Still for that read-out and setting: under `COc1cc(F)cc(CNC(=O)c2c(OC)nc3cc(C(F)(F)F)ccc3c2C)c1` [Example 40, N-[(3-fluoro-5-methoxy-phenyl)-methyl]-2-methoxy-4-methyl-7-(trifluoromethyl)-quinoline-3-carboxylic acid amide] stands 15%. As to `COc1ccc(F)cc1CNC(=O)c1c(OC)nc2cc(C(F)(F)F)ccc2c1C` [Example 41, N-[(5-fluoro-2-methoxy-phenyl)-methyl]-2-methoxy-4-methyl-7-(trifluoromethyl)-quinoline-3-carboxylic acid amide], a half-maximal response (EC50) required 1540 nM and the Emax stood at 140%. The matching figures for `COc1nc2cc(C(F)(F)F)ccc2c(C)c1C(=O)NCc1cccc(F)c1O` [Example 42, N-[(3-fluoro-2-hydroxy-phenyl)-methyl]-2-methoxy-4-methyl-7-(trifluoromethyl)-quinoline-3-carboxylic acid amide]: 123 nM and 137%. Regarding `COc1nc2cc(C(F)(F)F)ccc2c(C)c1C(=O)NCc1cc(O)cc(F)c1` [Example 43, N-[(3-fluoro-5-hydroxy-phenyl)-methyl]-2-methoxy-4-methyl-7-(trifluoromethyl)-quinoline-3-carboxylic acid amide], the Emax stood at 9%.
